In brackets after ≈: the same amount, converted by molar mass. Like-named read-outs stand apart in the source and are kept apart here.
Tests used:
E. coli CFT073 (UPEC) = experiment: MIC, standard microdilution assay, growing UPEC; format: cell-based, Escherichia coli; conditions: E. coli; for MIC (μM) CA-MHB +PAβN: CA-MHB with 10 μg/ml efflux pump inhibitor PaβN; for MIC: Escherichia coli
Method in brief: (§1)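 Standard microdilution protocol, triplicate wells. For S. flexneri the growth medium is TSB. The other three strains are grown in HEPES-buffered (40 mM, pH 7.4) CA-MHB, and UPEC is also run at pH 5.5 in LPM containing 30 mM MES.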

S. aureus DSM2569 = experiment: MIC, standard microdilution assay, growing S. aureus; format: cell-based, Staphylococcus aureus; conditions: Staphylococcus aureus, DSM2569; S. aureus; CA-MHB pH 7.4; read-out: MIC (μM) CA-MHB
Method in brief: as §1

P. aeruginosa DSM1117 = experiment: MIC, standard microdilution assay, growing P. aeruginosa; format: cell-based, Pseudomonas aeruginosa; conditions: P. aeruginosa; for MIC: Pseudomonas aeruginosa, DSM1117
Method in brief: as §1

[1] = tested on: non-growing P. aeruginosa DSM1117; experiment: Dilution-regrowth assay (OD600, start-growth-time) on stationary-phase P. aeruginosa; format: cell-based, Pseudomonas aeruginosa; conditions: P. aeruginosa; for EC50: Pseudomonas aeruginosa, DSM1117, regrowth delay of non-growing bacteria, 1:4 CA-MHB pH 7.4, 24 h treatment, OD600 8 h after dilution, read-out: EC50; for Regrowth, OD600 at 6h or 8h after dilution into drug-free medium: average
Method in brief: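 Stationary-phase cultures grown 24 h at 37 °C, 200 rpm, in 1:4 CA-MHB with 40 mM HEPES (pH 7.4), treated 24 h; preliminary compounds at 20 μM, 4 replicates. Regrowth OD600 read every 20 min at 37 °C; start-growth-time is when OD600 exceeds 0.12.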

S. flexneri 5a M90T = experiment: MIC in tryptic soy broth, S. flexneri; format: cell-based, Shigella flexneri; conditions: Shigella flexneri, 5AM90T, read-out: MIC (μM) TSB
Method in brief: as §1

non-growing UPEC CFT073 = experiment: Dilution-regrowth assay (screen, hit validation, dose-response) on stationary-phase UPEC; format: cell-based, Escherichia coli; conditions: for EC50: Escherichia coli, E. coli, regrowth delay of non-growing bacteria, 24 h treatment, OD600 6 h after 2500-fold dilution, read-out: EC50; for Regrowth, OD600 at 6h or 8h after dilution into drug-free medium: average
Method in brief: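 Regrowth (OD600 after 6 h, 37 °C) of diluted non-growing CFT073, following 24 h compound treatment of 24 h stationary cultures, defines activity relative to untreated control. Screen at 20 µM, validation at 20, 10, 5 µM (duplicates), dose–response in three biological replicates fitted by five-parameter logistic.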

[2] = pH 7.4, 1:4 diluted CA-MHB, read-out: MIC (μM) 1:4 CA-MHB
[3] = pH 7.4, CA-MHB, read-out: MIC (μM) CA-MHB
[4] = 1:4 diluted CA-MHB pH 7.4, read-out: MIC (μM) 1:4 CA-MHB
[5] = CA-MHB pH 7.4, read-out: MIC (μM) CA-MHB
[6] = E. coli in 1:4 CA-MHB (pH 7.4), concentration 0.25
[7] = E. coli in 1:4 CA-MHB (pH 7.4), concentration 0.5
[8] = E. coli in 1:4 CA-MHB (pH 7.4), concentration 1
[9] = E. coli in 1:4 CA-MHB (pH 7.4), concentration 2.5
[10] = E. coli in 1:4 CA-MHB (pH 7.4), concentration 5
[11] = E. coli in 1:4 CA-MHB (pH 7.4), concentration 10
[12] = E. coli in 1:4 CA-MHB (pH 7.4), concentration 30
[13] = E. coli in LPM (pH 5.5), concentration 0.25
[14] = E. coli in LPM (pH 5.5), concentration 0.5
[15] = E. coli in LPM (pH 5.5), concentration 1
[16] = E. coli in LPM (pH 5.5), concentration 2.5
[17] = E. coli in LPM (pH 5.5), concentration 5
[18] = E. coli in LPM (pH 5.5), concentration 10
[19] = E. coli in LPM (pH 5.5), concentration 30

SMILES | MIC (μM) CA-MHB +PAβN (E. coli CFT073 (UPEC); pH 7.4) | MIC (E. coli CFT073 (UPEC); [2]) | MIC (E. coli CFT073 (UPEC); [3]) | MIC (S. aureus DSM2569) | MIC (P. aeruginosa DSM1117; [4]) | MIC (P. aeruginosa DSM1117; [5]) | EC50 [1] | MIC (S. flexneri 5a M90T) | EC50 (non-growing UPEC CFT073; pH 7.4, 1:4 CA-MHB) | MIC (E. coli CFT073 (UPEC); LPM pH 5.5, read-out: MIC) | Regrowth, OD600 at 6h or 8h after dilution into drug-free medium ([1]; concentration 0.1) | Regrowth, OD600 at 6h or 8h after dilution into drug-free medium ([1]; concentration 0.5) | Regrowth, OD600 at 6h or 8h after dilution into drug-free medium ([1]; concentration 2.5) | Regrowth, OD600 at 6h or 8h after dilution into drug-free medium ([1]; concentration 10) | Regrowth, OD600 at 6h or 8h after dilution into drug-free medium (non-growing UPEC CFT073; [6]) | Regrowth, OD600 at 6h or 8h after dilution into drug-free medium (non-growing UPEC CFT073; [7]) | Regrowth, OD600 at 6h or 8h after dilution into drug-free medium (non-growing UPEC CFT073; [8]) | Regrowth, OD600 at 6h or 8h after dilution into drug-free medium (non-growing UPEC CFT073; [9]) | Regrowth, OD600 at 6h or 8h after dilution into drug-free medium (non-growing UPEC CFT073; [10]) | Regrowth, OD600 at 6h or 8h after dilution into drug-free medium (non-growing UPEC CFT073; [11]) | further results
C=C[C@]1(C)C[C@@H](OC(=O)CSC(C)(C)CNC(=O)[C@H](N)C(C)C)[C@]2(C)[C@H](C)CC[C@]3(CCC(=O)[C@H]32)[C@@H](C)[C@@H]1O [Valnemulin] | 10 µM (≈ 5.65 µg/mL) | 10 µM (≈ 5.65 µg/mL) | 20 µM (≈ 11.3 µg/mL) | 0.125 µM (≈ 0.0706 µg/mL) | > 160 µM | > 160 µM | 324 nM | 16 µM (≈ 9.04 µg/mL) | 373 nM |  |  |  |  |  |  |  |  |  |  |  | activity against non-growing UPEC in LPM (pH 5.5) compared to 1:4 CA-MHB (pH 7.4) (non-growing UPEC CFT073; regrowth delay and killing, Figs. 2 and 3): active at pH 7.4 and completely inactive in the acidic medium
CCN1CCN(c2cc3c(cc2F)c(=O)c(C(=O)O)cn3C2CC2)CC1 [Enrofloxacin] |  |  | 0.1 µM (≈ 0.0359 µg/mL) | 0.5 µM (≈ 0.18 µg/mL) | 4 µM (≈ 1.44 µg/mL) | 4 µM (≈ 1.44 µg/mL) | 690 nM | 0.0625 µM (≈ 0.0225 µg/mL) | 5170 nM | 0.125 µM (≈ 0.0449 µg/mL) |  |  |  |  |  |  |  |  |  |  | EC50 (non-growing UPEC CFT073; LPM pH 5.5): 21500 nM
CC[C@H]1OC(=O)[C@@](C)(F)C(=O)[C@H](C)[C@@H](O[C@@H]2O[C@H](C)C[C@H](N(C)C)[C@H]2O)[C@](C)(OC)C[C@@H](C)C(=O)[C@H](C)[C@H]2N(CCCCn3cc(-c4cccc(N)c4)nn3)C(=O)O[C@]12C [Solithromycin] | 4 µM (≈ 3.38 µg/mL) | 10 µM (≈ 8.45 µg/mL) | 8 µM (≈ 6.76 µg/mL) | 0.05 µM (≈ 0.0423 µg/mL) | 80 µM (≈ 67.6 µg/mL) | 80 µM (≈ 67.6 µg/mL) | 158 nM | 8 µM (≈ 6.76 µg/mL) | 288 nM |  |  |  |  |  |  |  |  |  |  |  | MIC (μM) CA-MHB +PAβN (P. aeruginosa DSM1117; CA-MHB with 10 μg/ml PaβN): >80 µM
O=C(O)c1cn(-c2ccc(F)cc2)c2cc(N3CCNCC3)c(F)cc2c1=O [Sarafloxacin] |  |  | 0.05 µM (≈ 0.0193 µg/mL) | 1 µM (≈ 0.385 µg/mL) | 2 µM (≈ 0.771 µg/mL) | 2 µM (≈ 0.771 µg/mL) | 216 nM | 0.0625 µM (≈ 0.0241 µg/mL) | 1720 nM | 0.5 µM (≈ 0.193 µg/mL) |  |  |  |  |  |  |  |  |  |  | 
COc1c(N2C[C@@H]3CCCN[C@@H]3C2)c(F)cc2c(=O)c(C(=O)O)cn(C3CC3)c12 [Moxifloxacin] |  |  | 0.125 µM (≈ 0.0502 µg/mL) | 0.125 µM (≈ 0.0502 µg/mL) |  | 8 µM (≈ 3.21 µg/mL) | 264 nM | 0.0625 µM (≈ 0.0251 µg/mL) | 649 nM |  | 0.549 | 0.215 | 0.094 | 0.093 | 0.565 | 0.481 | 0.120 | 0.067 | 0.066 | 0.068 | Regrowth, OD600 at 6h or 8h after dilution into drug-free medium (non-growing UPEC CFT073; [12]): 0.065; Regrowth, OD600 at 6h or 8h after dilution into drug-free medium (non-growing UPEC CFT073; [13]): 0.577; Regrowth, OD600 at 6h or 8h after dilution into drug-free medium (non-growing UPEC CFT073; [14]): 0.563; Regrowth, OD600 at 6h or 8h after dilution into drug-free medium (non-growing UPEC CFT073; [15]): 0.570; Regrowth, OD600 at 6h or 8h after dilution into drug-free medium (non-growing UPEC CFT073; [16]): 0.577; Regrowth, OD600 at 6h or 8h after dilution into drug-free medium (non-growing UPEC CFT073; [17]): 0.574; Regrowth, OD600 at 6h or 8h after dilution into drug-free medium (non-growing UPEC CFT073; [18]): 0.567; Regrowth, OD600 at 6h or 8h after dilution into drug-free medium (non-growing UPEC CFT073; [19]): 0.530
CO/N=C1\CN(c2nc3c(cc2F)c(=O)c(C(=O)O)cn3C2CC2)CC1CN (stereo not drawn) [Gemifloxacin] |  |  | 0.025 µM (≈ 0.00973 µg/mL) | 0.125 µM (≈ 0.0487 µg/mL) | 2 µM (≈ 0.779 µg/mL) | 1 µM (≈ 0.389 µg/mL) | 165 nM | 0.0156 µM (≈ 0.00608 µg/mL) | 752 nM | 0.25 µM (≈ 0.0973 µg/mL) | 0.486 | 0.138 | 0.091 | 0.090 | 0.556 | 0.511 | 0.206 | 0.090 | 0.086 | 0.083 | Regrowth, OD600 at 6h or 8h after dilution into drug-free medium (non-growing UPEC CFT073; [12]): 0.082; Regrowth, OD600 at 6h or 8h after dilution into drug-free medium (non-growing UPEC CFT073; [13]): 0.559; Regrowth, OD600 at 6h or 8h after dilution into drug-free medium (non-growing UPEC CFT073; [14]): 0.564; Regrowth, OD600 at 6h or 8h after dilution into drug-free medium (non-growing UPEC CFT073; [15]): 0.562; Regrowth, OD600 at 6h or 8h after dilution into drug-free medium (non-growing UPEC CFT073; [16]): 0.529; Regrowth, OD600 at 6h or 8h after dilution into drug-free medium (non-growing UPEC CFT073; [17]): 0.513; Regrowth, OD600 at 6h or 8h after dilution into drug-free medium (non-growing UPEC CFT073; [18]): 0.417; Regrowth, OD600 at 6h or 8h after dilution into drug-free medium (non-growing UPEC CFT073; [19]): 0.143
